Five molecules from ChEMBL document CHEMBL1921759, “Antiprotozoal activity of proton-pump inhibitors” (Bioorg Med Chem Lett, 2011) can be followed below.

Assay type in all cases: functional, organism-based
Test [1] relates to Giardia intestinalis. In words: Antiprotozoan activity against Giardia intestinalis. The settings on record: Giardia duodenalis.
The test system of test [2] is Trichomonas vaginalis. In words: Antiprotozoan activity against Trichomonas vaginalis.
The subject of test [3] is Trichomonas vaginalis. Put plainly: Antiprotozoan activity against Trichomonas vaginalis GT3 trophozoites compound treated for 48 hrs measured after 48 hrs washout period. The settings on record: GT3, 48 h.
Test [4] relates to Giardia intestinalis. In words: Antiprotozoan activity against Giardia intestinalis IMSS:0989:1 trophozoites compound treated for 48 hrs measured after 48 hrs washout period. The following applies: Giardia duodenalis, IMSS:0989:1, 48 h.
The next test has as its system Entamoeba histolytica. Put plainly: Antiprotozoan activity against Entamoeba histolytica HM1-IMSS trophozoites compound treated for 48 hrs measured after 48 hrs washout period.

The term IC50 denotes the concentration needed to halve the response being measured. Read a low IC50 as higher potency. On to `CN(C)CCSc1nc2c(Cl)cc(Cl)cc2[nH]1`, for which the IC50 in the test with Giardia intestinalis [1] was 20 nM; with Trichomonas vaginalis [2], 72 nM.

Consider `Cc1c(OCC(F)(F)F)ccnc1C[S+]([O-])c1nc2ccccc2[nH]1` (centres undefined) [LANSOPRAZOLE], for which the IC50 came out at 122 nM in the test with Trichomonas vaginalis [3], 73.1 nM in the test on Giardia intestinalis [4] and 347 nM with Entamoeba histolytica.

Turning to `COc1ccc2[nH]c([S+]([O-])Cc3ncc(C)c(OC)c3C)nc2c1` (centres undefined) [OMEPRAZOLE], the IC50 was found to be 122 nM in the test with Trichomonas vaginalis [3], 95.5 nM with Giardia intestinalis [4] and 492 nM in the test on Entamoeba histolytica.

`COc1ccnc(C[S+]([O-])c2nc3cc(OC(F)F)ccc3[nH]2)c1OC` (centres undefined) [PANTOPRAZOLE]: the figures for the IC50 with Trichomonas vaginalis [3], with Giardia intestinalis [4] and with Entamoeba histolytica were 75.6 nM, 15.7 nM and 2.6 nM, respectively.

Take `COCCCOc1ccnc(C[S+]([O-])c2nc3ccccc3[nH]2)c1C` (centres undefined) [RABEPRAZOLE]: the results for the IC50 in the test with Trichomonas vaginalis [3], with Giardia intestinalis [4] and with Entamoeba histolytica were 106 nM, 18.1 nM and 23.7 nM, respectively.
